Laboratory results as given in article PMC7614683, “A small molecule PI3Kα activator for cardioprotection and neuroregeneration” (Nature, 2023).

Columns and labels:
PI3Kα-WT MEFs = assay: pAKT S473 western blot, PI3Kα-WT MEFs; format: cell-based; settings: Mus musculus, 0.25 h; 15 min; read-out: EC50 of pAKT^S473 induction
Experimental: Unless otherwise indicated, western blotting was performed with ECL detection. For time course studies, A549 cells were seeded at 250,000 cells per well in 6-well plates in RPMI (10% FBS + 1 mM Na-Pyruvate + 1% P/S) and allowed to adhere overnight. The next day they were serum-starved for 4 h prior to treatment with 100 nM insulin or 5 μM 1938, for the indicated time (5 min to 48 h) at 37°C, 5% CO2. For 1938 titration assays in MEFs, cells were seeded at 150,000 cells per well in 6-well plates and allowed to adhere overnight. The next day they were serum-starved for 4 h prior to treatment with insulin (1 μM), 1938 (0.2 to 30 μM, final DMSO concentration of 1.5%) or inhibitors (final DMSO concentration of ≤1.5%) for 15 min at 37°C, 5% CO2. Cells were washed twice with cold PBS and lysed using cold RIPA buffer (25 mM Tris.HCl pH 7.6, 150 mM NaCl, 1% NP-40, 1% sodium deoxycholate, 0.1% SDS supplemented with protease/phosphatase inhibitor cocktail from Merck). To remove cell debris, homogenates were spun at 13,000 rpm for 15 min at 4°C and the supernatant fraction recovered. Protein concentration was determined by colorimetric assay (BCA assay, Promega). […]

A549 cells [1] = assay: pAKT S473 ELISA, A549; format: cell-based, human; settings: 15 min; 5-10 μM 1938
Experimental: A549 cells were seeded at 50,000 cells per well in 96-well plates in DMEM (10% FBS + 1% P/S). The next day cells were washed once with PBS before addition of serum-free DMEM for 24 h. On the day of treatment, cells were incubated in fresh serum-free DMEM prior to treatment. Compounds solubilised to 10 mM in DMSO were diluted 1:3 in an 8-point concentration response curve in DMSO. Concentration response curves were diluted in serum-free DMEM by transfer into intermediate plates using a BRAVO liquid handler (Agilent). Intermediate plates were then used to treat cell plates using the BRAVO liquid handler. […] Cell plates were treated for 15 min at 37°C, 5% CO2 before being washed with ice-cold PBS and lysed in lysis buffer […] Systems #895561) and freezing at -80°C. Levels of pAKT^S473 were determined using the phospho-AKT (S473) pan-specific Duoset IC ELISA (R&D Systems #DY[…]) in 96-well white high-binding plates (Corning #3922) according to manufacturer's instructions. Endpoint luminescence was measured using a Sense (Hidex) platereader. […] Data were transformed and EC50 data were determined by variable slope (4 parameters) non-linear regression using Prism 7 (Graphpad).

A549 cells [2] = assay: pAKT S473 western blot / Wes, A549; format: cell-based, human
Experimental: Unless otherwise indicated, western blotting was performed with ECL detection. For time course studies, A549 cells were seeded at 250,000 cells per well in 6-well plates in RPMI (10% FBS + 1 mM Na-Pyruvate + 1% P/S) and allowed to adhere overnight. The next day they were serum-starved for 4 h prior to treatment with 100 nM insulin or 5 μM 1938, for the indicated time (5 min to 48 h) at 37°C, 5% CO2. For 1938 titration assays in MEFs, cells were seeded at 150,000 cells per well in 6-well plates and allowed to adhere overnight. The next day they were serum-starved for 4 h prior to treatment with insulin (1 μM), 1938 (0.2 to 30 μM, final DMSO concentration of 1.5%) or inhibitors (final DMSO concentration of ≤1.5%) for 15 min at 37°C, 5% CO2. Cells were washed twice with cold PBS and lysed using cold RIPA buffer (25 mM Tris.HCl pH 7.6, 150 mM NaCl, 1% NP-40, 1% sodium deoxycholate, 0.1% SDS supplemented with protease/phosphatase inhibitor cocktail from Merck). To remove cell debris, homogenates were spun at 13,000 rpm for 15 min at 4°C and the supernatant fraction recovered. Protein concentration was determined by colorimetric assay (BCA assay, Promega). Protein extracts were resolved by SDS-PAGE, transferred to nitrocellulose membranes, and incubated overnight at 4°C with specific antibodies as follows: anti-vinculin (Sigma #V9131) and the following antibodies from Cell Signaling Technology (CST): pAKT-S473 (CST #9271), pS6-S240/244 (CST #2215), pPRAS40-T246 (CST #2640) and total S6 (CST #2317). Primary ntibodies were used at 1:1000 dilution except anti-vinculin (1:10000). Secondary antibodies are also from Cell Signalling Technology: Anti rabbit IgG, HRP linked Antibody (CST #7074S), Anti mouse IgG, HRP linked Antibody (CST #7076S). Raw and uncropped blots are shown in Supplementary Fig. 1.
A549 cells were seeded at 200,000 cells per well in 24-well plates in DMEM (10% FBS + 1% P/S) and allowed to adhere overnight. The next day, cells were washed once with PBS before addition of serum-free DMEM for 24 h. […]

[3] = test system: 133 protein kinases and 7 lipid kinases; assay: SelectScreen kinase profiling, whole panel; format: biochemical; settings: 1 μM of 1938
Experimental: 133 protein kinases and 7 lipid kinases were counterscreened, with 1938 used at 1 μM, using the Adapta, Lantha and Z-LYTE assays (SelectScreen Kinase Profiling Service; Thermofisher – experimental details of these assays can be found here: https://www.thermofisher.com/uk/en/home/industrial/pharma-biopharma/drug-discovery-development/target-and-lead-identification-and-validation/kinasebiology/kinase-activity-assays.html. The tree represention in KinMap[59] generated courtesy of Cell Signaling Technology, Inc. (www.cellsignal.com). mTORC1 (mTOR/RAPTOR/LST8) protein complex and ATM kinase and substrates were produced as previously described[57],[60]. Screening of 1938 was conducted using SuperSep Phos-Tag 50 μmol/l 100 x 100 x 6.6 mm 17-well (192-18001/199-18011) gels. For ATM assays, 100 nM ATM was incubated for 30 min at 30°C with 5 μM GST-p53 and 1 mM ATP, in the absence or presence of 200 μM 1938 in ATM Kinase Buffer (50 mM HEPES pH 7.5, 100 mM NaCl, 10% glycerol, 2 mM […], 5 mM MgCl2). As a positive control for ATM activation, the same reaction was carried out with 100 nM ATM/5 μM GST-p53/1 mM ATP in the presence of 100 nM Mre11-Rad50-Nbs1 (MRN) complex, a known activator of ATM[61]. […] Gels were then stained using InstantBlue™ Coomassie, and quantified using BioRad Image Lab Software. […]

CCN1CCN(c2ccc(Nc3cc(Nc4cccc5c4N(C(C)=O)CC5)ccn3)cc2)CC1 [Compound 1938]
EC50 (PI3Kα-WT MEFs): 2 to 4 µM
pAKT^S473 generation (A549 cells [1]): ~ 200 % of Emax of 1 μM insulin
time of peak pAKT^S473 activation (A549 cells [2]; 1938 5 μM, A549 and MCF10A): 30 min
time to induction of pAKT^S473 (A549 cells [2]; 1938 5 μM, A549 and MCF10A): 5 min
pAKT^S473 increase (A549 cells [2]; A549): BYL719-sensitive increase in pAKT^S473
effect on PI3Kβ, PI3Kγ, PI3Kδ, PI3K-C2α, Vps34, PI4Kβ, mTOR and DNA-PK [3]: did not affect the activity
inhibition of 13 protein kinases of the panel [3]: 25-50%
